Values of other authors in patent US5969017A, “Methods of treating or preventing cardiac arrhythmia” (Merck & Co., Inc., priority 1997, dated 1999).

Tests used:
ICa = conditions: background; cited from earlier work
IKs = target: T1, IKs (Cavia porcellus, UniProt O70344); conditions: Balser et al., guinea pig ventricular myocytes; cited from earlier work
T1 construct: Guinea pig ventricular myocytes were isolated; endogenous in cells; host or cells: isolated guinea pig ventricular myocytes

INa = conditions: background; cited from earlier work
IKr = conditions: background; cited from earlier work
L-type Ca2+ channels = conditions: Kass 1982; cited from earlier work
K+ currents = conditions: 0.4 mM as printed; cited from earlier work

T1 sequence (O70344 whole entry): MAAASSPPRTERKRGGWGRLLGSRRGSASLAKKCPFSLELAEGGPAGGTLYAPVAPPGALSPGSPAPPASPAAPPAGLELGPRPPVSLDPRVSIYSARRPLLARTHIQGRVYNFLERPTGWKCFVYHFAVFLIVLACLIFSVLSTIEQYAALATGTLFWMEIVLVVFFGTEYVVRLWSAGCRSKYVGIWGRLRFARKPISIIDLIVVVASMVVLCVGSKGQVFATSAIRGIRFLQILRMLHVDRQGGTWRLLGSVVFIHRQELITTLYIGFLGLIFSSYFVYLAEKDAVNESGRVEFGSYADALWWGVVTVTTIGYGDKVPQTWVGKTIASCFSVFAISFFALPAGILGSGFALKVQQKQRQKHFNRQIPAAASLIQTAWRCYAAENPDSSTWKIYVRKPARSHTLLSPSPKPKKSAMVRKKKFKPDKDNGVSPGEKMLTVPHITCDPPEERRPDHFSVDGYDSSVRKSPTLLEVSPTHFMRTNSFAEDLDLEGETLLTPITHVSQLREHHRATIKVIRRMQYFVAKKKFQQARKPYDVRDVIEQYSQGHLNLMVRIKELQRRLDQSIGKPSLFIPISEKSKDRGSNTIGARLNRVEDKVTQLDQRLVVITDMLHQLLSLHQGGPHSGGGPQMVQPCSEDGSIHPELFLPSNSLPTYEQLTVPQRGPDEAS
T1 sequence (Q60409 whole entry partner): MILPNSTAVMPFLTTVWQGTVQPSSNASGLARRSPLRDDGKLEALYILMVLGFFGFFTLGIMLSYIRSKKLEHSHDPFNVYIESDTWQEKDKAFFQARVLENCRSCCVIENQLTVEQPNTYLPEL

CCCCc1oc2ccccc2c1C(=O)c1cc(I)c(OCCN(CC)CC)c(I)c1 [amiodarone]
block of ICa (in words) (ICa): blocks INa and ICa | block of IKs (in words) (IKs): blocker of IKs | block of INa (in words) (INa): blocks INa

CC(C)NC[C@@H](O)c1ccc(NS(C)(=O)=O)cc1 [d-sotalol]
block of IKr (in words) (IKr): predominantly, if not exclusively, block IKr

COC(=O)C1=C(C)NC(C)=C(C(=O)OCC(C)C)C1c1ccccc1[N+](=O)[O-] (centres unmarked) [Nisoldipine]
block of L-type Ca2+ channels (in words) (L-type Ca2+ channels): relatively specific blocker | effect on K+ currents (in words) (K+ currents): no effect on K^+ currents

CS(=O)(=O)Nc1ccc2c(c1)C(O)CC1(CCN(C3CCc4cc(C#N)ccc4C3)CC1)O2 (single isomer, unassigned) [MK-499, methanesulfonamide--N--[1'-6-cyano-1,2,3,4-tetrahydro-2-naphthalenyl)-3,4-dihydro-4-hydroxyspiro[2H-1-benzopyran-2,4'-piperidin]-6yl], (+)-, monochloride]
block of IKr (in words) (IKr): predominantly, if not exclusively, block IKr

CN(CCOc1ccc(NS(C)(=O)=O)cc1)CCc1ccc(NS(C)(=O)=O)cc1 [dofetilide]
block of IKr (in words) (IKr): predominantly, if not exclusively, block IKr
